Measurements from US20240376154A1, “BIS-INTERCALATING PEPTIDES, CONJUGATES AND METHODS OF USE” (ZYMEWORKS BC INC., priority 2023, published 2024).
Like-named read-outs stand apart in the source and are kept apart here.

Columns and labels:
[1] = amide bond, 32-membered ring
[2] = tested on: biotinylated hairpin DNA sequence 5'-GCATGCTTTTGCATGC; test: DNA binding by surface plasmon resonance (SPR)
Protocol: Representative compounds prepared as described in Example 2 were assessed in two complementary DNA-binding assays. Increased melting temperature of herring sperm DNA was measured using differential scanning calorimetry (DSC) and binding kinetics were determined by surface plasmon resonance (SPR) using a short DNA hairpin sequence.
SPR experiments were conducted at 25° C. using a Biacore™ T200 instrument and SA-Biotin chip. PBST Buffer: Gibco PBS, pH 7.4 was modified with Tween®20 (0.01%) and DMSO (2%). Immobilization: a short biotinylated hairpin DNA sequence 5′-GCATGCTTTTGCATGC (5′ biotin) (SEQ ID NO: 1) that contains two known sandramycin binding segments (in bold) was heated to 90° C., cooled to RT then immobilized to 700 RU. Bis-intercalating peptides at concentrations of 5, 2.5, 1.25, 0.625, and 0.312 μM in PBST were flowed over the chip at 20 μL/min with an association time of 600 s followed by dissociation for 600 s. Reference cell values were subtracted and binding constants ka, kd, and KD were determined using Biacore™ T200 Evaluation Software, version 3.0.

[3] = Lipophilicity by experimental HPLC retention time; type: physicochemical; settings: HPLC retention time as measure of lipophilicity; C18, 10 to 90% CH3CN/H2O with 0.1% FA over 25 min
How it was run: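 Reversed-phase HPLC with diode array detection on a Kinetex EVO C18 150×4.6, 2.6 μm column. Gradient 10 to 90% CH3CN/H2O with 0.1% FA over 25 min; retention time serves as the lipophilicity measure.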

[4] = tested on: tumour cells (at least 4 of a panel of ovarian, breast, lung, pancreatic, placenta, colon cell lines); test: In vitro cytotoxicity (cell proliferation, CellTiter-Glo), average over tumour cell line panel; type: cell-based; settings: for pIC50 (average): average pIC50 on all cell lines tested, 5 nights incubation, CellTiter-Glo
How it was run: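 Each cell line seeded at ~1000 cells/well and left to adhere overnight, then given a 10-point 1:3 compound titration for 5 nights at 37° C, 5% CO2. Viability read by CellTiter-Glo luminescence; IC50 per line, reported as pIC50 averaged across at least 4 lines.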

[5] = tested on: OVKATE (Ovarian Adenocarcinoma); test: Cell proliferation assay, OVKATE; type: cell-based; settings: 5 nights
Protocol: (§1) The ability of Compound 419 and Compound 424 to inhibit proliferation of tumour cells in vitro was measured by a cell proliferation assay using the following tumour cell lines: IGROV-1 (Ovarian Adenocarcinoma, NCI), JEG-3 (Placental Choriocarcinoma, AddexBio (C0030003)) and OVKATE (Ovarian Adenocarcinoma, Japanese Collection of Research Bioresources (JCRB) (JCRB1044)).
(§2) Cell lines were cultured as per vendor instructions prior to running the cell proliferation assay. Briefly, on the day prior to adding compound, cells (50 μL/well, 1000 cells/well) were added to sterile, tissue culture (TC)-treated, 384-well plates (ThermoFisher Scientific, Catalogue #164610) and incubated overnight at 37° C./5% CO2 to allow the cells to adhere to the plate surface. The next day, in a sterile, V-bottom, 96-well plate, compounds were titrated 1:3 in complete growth medium, creating a 10-point dose response titration with compounds at 3.5-times the desired final concentration. Control wells with no compound (growth medium only) were included for each compound titration in 96-well dilution plates. 20 uL from the 10-point dose response titration were added to the 384-well plate containing the seeded cells, in duplicate. Plates were incubated at 37° C./5% CO2 for 5 nights. After 5-night incubation, cell viability was quantified by the addition of 15 uL/well of CellTiter-Glo® (Promega, Catalogue #G7572) and incubation at room temperature for 30 minutes. After 30-minute incubation, luminescence was measured using a microplate luminometer (BioTek® Synergy™ H1 Microplate Reader). The resulting relative light units (RLU values) were converted to % cytotoxicity using the growth medium only control wells mentioned above:
(§3) Data was fit into 4-parameter logistic to curves using non-linear regression methods available with GraphPad Prism software (GraphPad Software, Inc.).

[6] = tested on: JEG-3 (Placental Choriocarcinoma); test: Cell proliferation assay, JEG-3; type: cell-based; settings: 5 nights
Protocol: as §1, §2, §3

[7] = tested on: IGROV-1 (Ovarian Adenocarcinoma); test: Cell proliferation assay, IGROV-1; type: cell-based; settings: 5 nights
Protocol: as §1, §2, §3

[8] = Stability in female mouse plasma; type: in vitro ADME; settings: 37° C., 24 h
Protocol: The stability of exemplary compounds of general Formula I in mouse plasma was evaluated as follows.
Compounds were incubated at 1 μM in duplicate in female mouse plasma, 250 μL final volume, at 37° C. for 24 h. Aliquots were sampled at 0, 15, 30, 60, 120, 240, 480 and 1440 min. Proteins were precipitated by addition of 5 volumes of cold methanol. After centrifugation 10000×g for 10 min, the residual concentration of compound in the supernatant was measured using an appropriate LC-MS/MS method. The measured concentrations were expressed as a function of time through a one-phase decay exponential regression calculated using GraphPad Prism software (GraphPad Software, Inc.) to generate the plasma half-life for each compound.

herring sperm DNA = test: DNA melting temperature by differential scanning calorimetry (DSC); type: binding; settings: DSC; herring sperm DNA; DNA melting temperature = 68° C.
How it was run: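 Herring sperm DNA at 1 mg/mL (1.4 mM base pair) in BPE buffer, pH 7.0, equilibrated with test article (10 mM DMSO stock) for >3 h, insolubles removed by centrifugation. Scanned 25 to 110° C. at 1° C./min; melting temperature taken from the DSC melting curve.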

| Molecule | ring closure, yield after HPLC [1] | HPLC [3] | pIC50 (average) [4] | EC50 [5] | EC50 [6] | EC50 [7] | further results |
| --- | --- | --- | --- | --- | --- | --- | --- |
| Tert-butyl (4-nitrobenzyl) ((7R,10aS,22aS,29R,32aS,44aS)-18,40-dimethyl-6,16,19,22,28,32,38,41,44-nonaoxodotetracontahydro-6H-tetrapyrido[2,1-b1: 2′,1′-c: 2″,1″-1:2′″,1′″-s][1]oxa[4,7,10,13,17,20,23,26,29]nonaazacyclodotriacontine-7,29-diyl)dicarbamate | 23% |  |  |  |  |  |  |
| (7R,11S,19aS,26R,38aS)-26-(((benzyloxy)carbonyl)amino)-11-isopropyl-12,15,30,30,31,34-hexamethyl-6,10,13,16,19,25,29,32,35,38-decaoxohexatriacontahydro-2H,6H-dipyrido[1,2-a:1′,2′-q][1,4,7,10,13,17,20,23,26,29]decaazacyclodotriacontin-7-aminium trifluoroacetate |  |  |  |  |  |  | ring closure, yield after HPLC ([1]; 2 steps): 45% |
| CC(C)[C@H]1C(=O)NCC(=O)N(C)CC(=O)N2CCCC[C@H]2C(=O)NC[C@@H](NC(=O)c2nc3ccccc3cc2O)C(=O)N(C)[C@@H](C(C)C)C(=O)NCC(=O)N(C)CC(=O)N2CCCC[C@H]2C(=O)NC[C@@H](NC(=O)c2nc3ccccc3cc2O)C(=O)N1C [Compound 414, N,N′-((13S,16R,19aS,32S,35R,38aS)-13,32-diisopropyl-8,14,27,33-tetramethyl-6,9,12,15,19,25,28,31,34,38-decaoxohexatriacontahydro-2H,6H-dipyrido[2,1-c: 2′,1′-s][1,4,7,10,13,17,20,23,26,29]decaazacyclodotriacontine-16,35-diyl)bis(3-hydroxyquinoline-2-carboxamide)] |  | 16.8 min | inactive |  |  |  | DNA binding via SPR (in words) [2]: non-binding; KD (mM) ([2]; SPR, 25° C., hairpin DNA): none; activity in cell assays (in words) [4]: inactive |
| Benzyl tert-butyl ((7R,11S,19aS,26R,30S,38aS)-11,30-diisopropyl-15,34-dimethyl-6,10,13,16,19,25,29,32,35,38-decaoxohexatriacontahydro-2H,6H-dipyrido[1,2-a:1′,2′-q][1,4,7,10,13,17,20,23,26,29]decaazacyclodotriacontine-7,26-diyl)dicarbamate | 20% |  |  |  |  |  |  |
| C[C@H]1NC(=O)[C@@H]2CCCCN2C(=O)CN(C)C(=O)CNC(=O)[C@@H]2CCCCN2C(=O)[C@H](NC(=O)c2nc3ccccc3cc2O)[C@@H](C)NC(=O)[C@@H]2CCCCN2C(=O)CN(C)C(=O)CNC(=O)[C@@H]2CCCCN2C(=O)[C@@H]1NC(=O)c1nc2ccccc2cc1O [Quinaldopeptin, quinaldopeptin, reference compound] |  | 16.7 min | 8.0 | 14.8 nM | 9.8 nM | 6.5 nM | plasma stability (in words) ([8]; 1 μM): stability over the course of the experiment |
| CC(C)[C@H]1C(=O)NC[C@@H](NC(=O)c2nc3ccccc3cc2O)C(=O)N2CCCC[C@H]2C(=O)NCC(=O)N(C(C)C)CC(=O)N(C)[C@@H](C(C)C)C(=O)NC[C@@H](NC(=O)c2nc3ccccc3cc2O)C(=O)N2CCCC[C@H]2C(=O)NCC(=O)N(C(C)C)CC(=O)N1C [Compound 424, N,N′-((7R,11S,19aS,26R,30S,38aS)-11,15,30,34-tetraisopropyl-12,31-dimethyl-6,10,13,16,19,25,29,32,35,38-decaoxohexatriacontahydro-2H,6H-dipyrido[1,2-a:1′,2′-q][1,4,7,10,13,17,20,23,26,29]decaazacyclodotriacontine-7,26-diyl)bis(3-hydroxyquinoline-2-carboxamide)] |  |  |  |  | 55.7 nM | 54 nM |  |
| Benzyl N-[(3R,7S,20S,27R,31S,44S)-27-[(tert-butoxycarbonyl)amino]-15,39-dimethyl-2,6,13,16,19,26,30,37,40,43-decaoxo-1,5,12,15,18,25,29,36,39,42-decaazapentacyclo[42.4.0.0^7,12.0^20,25.0^31,36]octatetracontan-3-yl]carbamate | 40% |  |  |  |  |  |  |
| CCCN1CC(=O)N(C)[C@@H](C(C)C)C(=O)NC[C@@H](NC(=O)c2nc3ccccc3cc2O)C(=O)N2CCCC[C@H]2C(=O)NCC(=O)N(CCC)CC(=O)N(C)[C@@H](C(C)C)C(=O)NC[C@@H](NC(=O)c2nc3ccccc3cc2O)C(=O)N2CCCC[C@H]2C(=O)NCC1=O [Compound 419, N,N′-((7R,11S,19aS,26R,30S,38aS)-11,30-diisopropyl-12,31-dimethyl-6,10,13,16,19,25,29,32,35,38-decaoxo-15,34-dipropylhexatriacontahydro-2H,6H-dipyrido[1,2-a:1′,2′-q][1,4,7,10,13,17,20,23,26,29]decaazacyclodotriacontine-7,26-diyl)bis(3-hydroxyquinoline-2-carboxamide)] |  |  |  | 24.1 nM | 6.9 nM | 11.5 nM |  |
| CC(C)[C@H]1C(=O)OC[C@@H](NC(=O)c2nc3ccccc3cc2O)C(=O)N2CCCC[C@H]2C(=O)NCC(=O)N(C)CC(=O)N(C)[C@@H](C(C)C)C(=O)OC[C@@H](NC(=O)c2nc3ccccc3cc2O)C(=O)N2CCCC[C@H]2C(=O)NCC(=O)N(C)CC(=O)N1C [Sandramycin, N,N′-((7R,11S,19aS,26R,30S,38aS)-11,30-diisopropyl-12,15,31,34-tetramethyl-6,10,13,16,19,25,29,32,35,38-decaoxodotriacontahydro-2H,6H,10H,25H-dipyrido[2,1-b1:2′,1′-l][1,17]dioxa[4,7,10,13,20,23,26,29]octaazacyclodotriacontine-7,26-diyl)bis(3-hydroxyquinoline-2-carboxamide), reference compound] |  | 21.6 min | 9.0 | 0.8 nM | 3.3 nM | 1.6 nM | DNA melt (° C.) (herring sperm DNA): 102 °C; half-life at 1 μM ([8]; female, mouse, plasma): 5.9 h |
